Source: patent US20120232162A1, “USE OF LUTEIN CONTAINING COMPOSITIONS TO IMPROVE CERTAIN ASPECTS OF MEMORY” (priority 2009, published 2012)
Entries after “also recorded” stand apart in the source; their conditions may differ.

Experiments:
mice [1] = assay: IntelliCage place learning paradigm (spatial learning and memory); format: in vivo; details: Lutein 9 mg/kg BW in feed, vs placebo-fed littermates
Source text: (§1) The cognitive performance of mice treated with lutein and/or zeaxanthin was compared with that of vehicle-treated, age-matched controls in the IntelliCage®, a system which enables automated monitoring of spontaneous and learning behavior of mice in a homecage-like environment (NewBehavior AG, Zurich, Switzerland, www.newbehavior.com; Galsworthy et al. 2005, Behav Brain Res 157: 211-217; Onishchenko et al. 2007, Toxicol Sci 97: 428-437, Mechan et al., 2009, J. Neurosci. Methods, 180:43-51). Individual mice are recognized by sensors within the IntelliCage corners reading a transponder (reference identification tag) which is implanted into the scruff of the mouse's neck.
Each IntelliCage® is essentially a large cage (37.5×55×20.5 cm), into which is placed a metal frame, comprising four recording (operant) chambers. The recording chambers fit into the corners of the cage, each covering a 15×15×21 cm right-angled triangular area of floor space. In-cage antennae enable automatic monitoring of each individual mouse's corner visits; photo-beams within each corner enable automated recording of individual nosepokes and licks of the water bottle spouts. Four triangular mouse shelters are placed in the center of the cage, above which is situated a food hopper, enabling ad libitum access to food. […]

mice [2] = assay: IntelliCage associative memory paradigm (negative reinforcement, stress); format: in vivo
Source text: as §1
Each IntelliCage® is essentially a large cage (37.5×55×20.5 cm), into which is placed a metal frame, comprising four recording (operant) chambers. The recording chambers fit into the corners of the cage, each covering a 15×15×21 cm right-angled triangular area of floor space. In-cage antennae enable automatic monitoring of each individual mouse's corner visits; photo-beams within each corner enable automated recording of individual nosepokes and licks of the water bottle spouts. Four triangular mouse shelters are placed in the center of the cage, above which is situated a food hopper, enabling ad libitum access to food.
Each recording chamber comprises: (1) a plastic ring (30 mm inner diameter) which serves as an entrance into the chamber and houses the circular antenna which registers corner visits; (2) a grid floor, which the mice sit on once they have entered the chamber; (3) two circular openings (13 mm diameter) which enable access to water bottle spouts; each opening is crossed by photo-beams which register nose-pokes; (4) two motorized doors, which allow (door open) or prohibit (door closed) access to the water bottle spouts; (5) two water bottles; (6) tubing, through which air-puffs can be delivered as aversive stimulation; (7) different colored light diodes, which can be used for conditioning experiments (Mechan et al., 2009 J Neurosci Methods 180:43-51). […]

mice [3] = assay: IntelliCage side discrimination paradigm (attention, associative learning and memory); format: in vivo; details: Lutein 9 mg/kg BW in feed, vs vehicle
Source text: as §1
Each IntelliCage® is essentially a large cage (37.5×55×20.5 cm), into which is placed a metal frame, comprising four recording (operant) chambers. The recording chambers fit into the corners of the cage, each covering a 15×15×21 cm right-angled triangular area of floor space. […]
This module was designed to test attention and associative memory. […] During this module the place errors (i.e. percentage of visits to incorrect corners) and side errors (i.e. percentage of nosepokes at the incorrect side of the correct corner) were recorded.

[4] = test system: primary culture of neurons; assay: glutamate neurotoxicity paradigm in primary neuron culture (neurofilament network / neurite length); format: cell-based; details: lutein pre-treatment from day 5, 3 concentrations, n=6; 250 μM glutamate for 6 hours on day 12; glutamate control set as 100%; p<0.05 and <0.01
Source text: Glutamate is one of the principal excitatory amino acid in the central nervous system, and as such plays a crucial role in normal physiology. Perturbations in normal regulatory mechanisms of glutamate functions may lead to excessive, neurotoxic activation of glutamate receptors in the brain, which may be detrimental to learning and memory performance in the normal and aging brain. Using a primary culture of neurons, these conditions can be reproduced by glutamate intoxication. Impact on cultured neurons was indicated by morphological changes in the neurofilament cytoskeleton network of the neurons.
Neuroprotective effects of single compounds and combinations of compounds were evaluated by analyzing network density using labelling with an anti-neurofilament antibody (heavy chain 200 kD) specific to mature neuron neurites.
Riluzole (a pharmacological neuroprotective agent) and MK801 were used as inhibitory compounds counteracting neurotoxic effects of glutamate resulting in outgrowth of neurites. Inhibitory MK801 (complete blockage of NMDA-type glutamate receptors) was powerful and led to 100% recovery after intoxication.
Neuroprotective functions of lutein were tested using the schedule shown below:
On day 5, the culture medium was replaced by control culture medium or medium containing lutein (3 concentrations) within physiological range, n=6 per concentration). […]

[5] = lutein alone; chronic treatment (4 months); WO 2006/116755; cited from earlier work
[6] = second set of experiments, younger animals, intermediate lutein dose (of 8, 16 and 30 mg/kg/d), vs control group

Compound: CC1=C[C@H](O)CC(C)(C)[C@H]1/C=C/C(C)=C/C=C/C(C)=C/C=C/C=C(C)/C=C/C=C(C)/C=C/C1=C(C)C[C@@H](O)CC1(C)C [lutein]
- using spatial cues to find and memorize the location of water (mice [1]): significant improvement; also recorded: significantly better
- learning and memorizing the correct place to access water under stressful conditions (air puff punishment) (mice [2]; Lutein 9 mg/kg BW in feed, vs vehicle-treated littermates): significantly better
- performance in the associative memory task, place errors (mice [2]; [6]): significant improvement
- performance in the associative memory task, side errors (mice [2]; [6]): significant improvement
- side error rate (percentage of nosepokes at the incorrect side of the correct corner) (mice [3]; active phase): significantly lower
- place error rate (percentage of visits to incorrect corners) (mice [3]; active phase (first 12 h)): higher level of attention and an improved memory performance; also recorded: significantly lower
- protection of neurons from excitotoxic glutamate neuro-toxicity (neurite length) [4]: significantly protected
- Verbal Fluency test [5]: significant improvement
- other cognitive- or mood assessment-tests [5]: did not result in improvements
